Assay results from patent publication US12090122B2, “Curcumin-based compositions and methods of use thereof” (priority 2017, dated 2024).

Tests used:
Type in all cases: cell-based
[1] = test system: NFkB p65 phosphorylated at the serine 276 phosphosite; assay: Western blot of NFkB-p65 phosphorylated at serine 276 in LPS-induced BV2 cells; settings: 22.0 μg/ml, 30 min pre-treatment, LPS induction, cytoplasmic and nuclear, FIGS. 5 and 6
Description: (§1) Example 2—Western Blot Analysis of Cytoplasmic and Nuclear MSK1 Levels. Western blot analysis was performed in multiple varying formats before optimization was achieved. The BV2 microglia cell line was cultured in Dulbecco's Modified Eagle's Medium (DMEM)—complete medium. The complete medium consisted of DMEM, 1% Ampicillin, and 10% Fetal Bovine Serum (FBS). BV2 microglia cells, at a cell count of approximately 2×10^6, were seeded in each well (6 wells per plate) with 2.0 ml complete medium and cultured overnight in a ThermaForma HepaFilter Series II CO2 Incubator at 37° Celsius. Upon establishing confluence, subconfluent cells were washed out and the wells were prepared with drug pre-treatment after overnight incubation.
(§2) The test drugs (curcuminoids) were procured as follows: curcumin I research standard (03926) (ChromaDex Irvine, CA USA) (97.7% purity); curcumin II research standard (04230) (ChromaDex Irvine, CA USA) (97.3%); curcumin III research standard (B6938) (Sigma-Aldrich St. Louis, Missouri, USA) (97.7% purity); curcumin extract (curcumin I—77.7%, curcumin II—16.9%, curcumin III—0.9%) research standard (03928) (ChromaDex Irvine, CA USA) (95.3% purity); and Lipopolysaccharide (LPS) from E. Coli (L2630) (Sigma-Aldrich St. Louis, Missouri, USA).
(§3) Curcuminoids are not soluble in aqueous medium due to their hydrophobic characteristic. However, curcuminoid extracts are soluble in polar organic solvents, such as DMSO and acetone. In this Example, each curcuminoid preparation was first dissolved in DMSO. DMSO was used in the drug preparation at 0.2%. The drug/DMSO solution was subsequently dissolved in DMEM to achieve a final drug concentration for each curcuminoid preparation tested—22.0 μg/ml curcuminoid. […]
(§4) Total protein concentration for each fraction was determined using a Bio Rad Protein Assay that is based on the Bradford Assay (dye-binding method). […]
(§5) The targets analyzed in the Western Blot included NFkB-p65 and its nucleocytoplasmic translocation, as well as kinases (including MSK1) and their covalent modifications upstream of and involved in the regulation of NFkB. […]

NFkB-p65 = assay: Western blot of cytoplasmic and nuclear NFkB-p65 protein levels (nucleotranslocation) in LPS-induced BV2 cells; settings: 22.0 μg/ml, 30 min pre-treatment, LPS induction, FIGS. 3 and 4
Description: as §1, §2, §3, §4, §5

[2] = test system: MSK1 phosphorylated at the serine 376 phosphosite; assay: Western blot of MSK1 phosphorylated at serine 376 in LPS-induced BV2 cells; settings: 22.0 μg/ml, 30 min pre-treatment, LPS induction, FIGS. 9 and 10
Description: as §1, with “incubation. […]” for “incubation.”
as §4, §5

## COc1cc(/C=C/C(=O)/C=C(O)/C=C/c2ccc(O)c(OC)c2)ccc1O [curcumin I, (1E,6E)-1,7-Bis(4-hydroxy-3-methoxyphenyl)-1,6-heptadiene-3,5-dione, reference compound]
[1]
  NFkB-p65 serine 276 phosphorylation: moderately inhibit
NFkB-p65
  NFkB-p65 nucleotranslocation (cytosolic and nuclear NFkB-p65 levels relative to total protein): not significantly inhibited

## O=C(/C=C/c1ccc(O)cc1)CC(=O)/C=C/c1ccc(O)cc1 [curcumin III, (1E,6E)-1,7-bis(4-hydroxyphenyl)hepta-1,6-diene-3,5-dione]
[1]
  NFkB-p65 serine 276 phosphorylation: moderately inhibit
NFkB-p65
  NFkB-p65 nucleotranslocation (cytosolic and nuclear NFkB-p65 levels relative to total protein): not significantly inhibited

## COc1cc(/C=C/C(=O)CC(=O)/C=C/c2ccc(O)cc2)ccc1O [curcumin II, (1E,6E)-1-(4-Hydroxy-3-methoxyphenyl)-7-(4-hydroxyphenyl)hepta-1,6-diene-3,5-dione]
[1]
  NFkB-p65 serine 276 phosphorylation: moderately inhibit
NFkB-p65
  NFkB-p65 nucleotranslocation (cytosolic and nuclear NFkB-p65 levels relative to total protein): not significantly inhibited
[2]
  MSK1 serine 376 phosphorylation: inhibit
